Experimental data reported in patent US10183014B2, “Ocular formulations for drug-delivery and protection of the anterior segment of the eye” (PanOptica, Inc., priority 2014, dated 2019).

How the values were obtained:
[1] = Particle size distribution by laser diffraction light scattering; type: physicochemical; conditions: 5% menadione, HPMC formulation, roller milled; 40° C.
Experimental: Particle size distribution can be analyzed using laser diffraction light scattering, e.g., with a Horiba LA-950 V2. Generic assumptions are made in setting conditions and the refractive index value. The distributions are volume based. Sample density is adjusted to a generic range of percent transmission on the blue LED light source. A small sample cell (filled with water) can be used rather than the flow through cell, to minimize sample quantity.
Particle size distribution was analyzed using laser diffraction light scattering with a Horiba LA-950 V2. Generic assumptions were made in setting conditions and the refractive index value. The distributions were volume based. Sample density was adjusted to a generic range of percent transmission on the blue LED light source. A small sample cell (filled with water) was used rather than the flow through cell, to minimize sample quantity.

[2] = Ocular pharmacokinetics of formulations, Example 20-3; type: in vivo, Dutch Belted rabbits; conditions: 1.0 μM Vit K3 suspension, 30 μL/eye/dose QD for 4 Days, 1 hr post dose on Day 5; for Vitamin K3 concentration in Cornea: LLOQ = 2.91 μM; for Vitamin K3 concentration in Central Choroid: LLOQ = 43.6 μM
Experimental: The study design (Table 17-1) consisted of thirty-nine (39) Dutch Belted rabbits, each receiving a 30 μL bilateral topical ocular dose. Various suspension formulations of the present application were evaluated and compared against two control formulations: a) a cyclodextrin-based eye drops solution (Control Group 13, Table 17-1), and b) a pilot suspension formulation used in previous rabbit pharmacokinetic studies, (Group 10, Table 17-1). Formula II or Compound-I was used in the test suspensions, whereas the Eye Drops solution formulation is derived with the Compound-I.
(§1) Ocular sampling occurred one hour following the first daily dose on Day 5 for all groups. Whole blood samples using K2EDTA as an anticoagulant were collected from all animals on Day 5, 1 hour post dose. The whole blood was placed on ice until samples were spun in a centrifuge to separate the plasma. Aqueous humor, conjunctiva, cornea, central retina, peripheral retina, central choroid, and peripheral choroid samples were collected following necropsy. Samples were then frozen at −70° C. or lower. For all Groups 1-13, plasma, central retina, central choroid, and cornea samples were assayed.
Additionally, Vitamin K3 concentrations were determined in plasma, central retina, central choroid, and cornea samples for animals from Groups 8 and 9. A calibration curve prepared in control matrix was used to determine the concentration of Vitamin K3.

[3] = test system: corneas of C57/Bl mice; assay: Corneal wound healing in vivo with a second active agent; conditions: 0.3 μM menadione, 48 hours pre-treatment
Experimental: Determination of the effects of a compound of Formula I or II and/or a second active agent on corneal wound healing was determined in mice. Corneas of C57/Bl mice are wounded and then pre-treated with a compound of Formula I or II, followed by addition of EGF, vitamin K, or nicotinic acid/nicotinamide. Wound size and closure are monitored.
Corneas of 8 week old C57/Bl mice were pre-treated with topical administration of vehicle, 0.3 μM menadione, 10 μM of a compound of Formula I or II, 0.3 μM menadione and 10 μM of a compound of Formula I or II 48 hours before the corneas were wounded (1.5 mm superficial epithelial wound). Wound size was monitored by fluorescein staining and fluorescent photography. Wound closure was monitored over the course of 40 hours.

[4] = target: T1, EGFR (Homo sapiens, UniProt P00533); assay: Mechanism by which menadione enhances EGFR activity (hTCEpi immunoblot); type: cell-based; set-up: Kinetics of EGFR degradation: dose or concentration left out as unconfirmed
T1 construct: endogenous in cells; host or cells: hTCEpi (immortalized corneal epithelial cells)
Experimental: […] Cells were then incubated with 8.0 nM (50 ng/ml) EGF for 0-3 hours. The cells were lysed and the lysates were resolved by SDS-PAGE, and immunoblotted for phosphorylated EGFR (pY1068), total EGFR, or α-tubulin.

[5] = test system: hTCEpi cells; assay: Cell migration/proliferation (in vitro wound healing) in hTCEpi cells: compound and second active agent; type: cell-based; conditions: 0.3 μM menadione
Experimental: Determination of cell migration/proliferation in corneal epithelial cells is run to determine cell migration/proliferation in the presence of varying concentrations of a compound of Formula I or II, vitamin K, or nicotinic acid/nicotinamide. Cells are plated with silicone plugs. The cells are then serum starved and pre-treated with varying concentrations of a compound of Formula I or II or a control. The plugs are removed and the cells are treated with 1) EGF, 2) EGF and vitamin K or 3) EGF and nicotinic acid/nicotinamide. Cell migration is quantified from micrographs.
hTCEpi cells were plated with silicone plugs. The cells were then serum starved and pre-treated with varying concentrations of vitamin K3 analog, menadione, for 4 hours and supplemented with the varying concentrations of a compound of Formula I or II for 30 minutes. The plugs were removed. The cells were photographed and then treated with various concentrations of vitamin K, EGF, and/or a compound of Formula I or II. The cells were again photographed and cell migration was quantified from the micrographs. Additional controls run included no compound of Formula I or II and no EGF. All experiments were repeated three times.

[6] = target: T1, EGFR; assay: EGFR tyrosine phosphorylation assay in hTCEpi cells with a second active agent; type: cell-based; conditions: vitamin K 50 μM, nicotinic acid 10 μM or nicotinamide 10 μM, 4 hours pre-treatment, EGF 50 ng/ml
Experimental: An EGFR tyrosine assay in corneal epithelial cells is run to determine if Vitamin K or nicotinic acid/nicotinamide can overcome inhibition of EGFR and if there is an increase in EGFR activity. […] Cells are harvested cells and immunoblotted for determination of phosphorylated EGFR (tyrosine 1068 and tyrosine 1045) and total EGFR concentration which was used to determine receptor activity (IC50).
The cells were then incubated with EGF (50 ng/ml) for 15 minutes. Cells were harvested and cell lysates were immunoblotted for determination of phosphorylated EGFR (tyrosine 1068 and tyrosine 1045) and total EGFR concentration.

[7] = Ocular pharmacokinetics of formulations, Example 20-5; type: in vivo, Dutch Belted rabbits
Experimental: The study design (Table 19-1) consisted of forty-seven (47) Dutch Belted rabbits, each receiving a 30 μL bilateral topical ocular dose. Various suspension formulations of the present application were evaluated and compared against a cyclodextrin-based eye drops solution (Control Group 1, Table 19-1). Formula II or Compound-I was used in the test suspensions as well as the Eye Drops solution.
as §1, with “1-15,” for “1-13,”, “assayed. For Group 5 only, samples were analyzed for Vitamin K3.” for “assayed.”
An analytical method for the analysis of Vitamin K3 was determined in plasma, central retina, central choroid, and cornea samples from Group 5 animals. A calibration curve prepared in control vitreous humor was used to determine the concentration of Vitamin K3. Internal standard (IS) responses were inconsistent for the central choroid and plasma samples. Thus, positive plasma results were likely due to the reduced IS response.

[8] = Group 8: Formula II 4 mg/mL, HPMC
[9] = Group 9: Formula II 4 mg/mL, Pluronic

T1 sequence (P00533 25-1210): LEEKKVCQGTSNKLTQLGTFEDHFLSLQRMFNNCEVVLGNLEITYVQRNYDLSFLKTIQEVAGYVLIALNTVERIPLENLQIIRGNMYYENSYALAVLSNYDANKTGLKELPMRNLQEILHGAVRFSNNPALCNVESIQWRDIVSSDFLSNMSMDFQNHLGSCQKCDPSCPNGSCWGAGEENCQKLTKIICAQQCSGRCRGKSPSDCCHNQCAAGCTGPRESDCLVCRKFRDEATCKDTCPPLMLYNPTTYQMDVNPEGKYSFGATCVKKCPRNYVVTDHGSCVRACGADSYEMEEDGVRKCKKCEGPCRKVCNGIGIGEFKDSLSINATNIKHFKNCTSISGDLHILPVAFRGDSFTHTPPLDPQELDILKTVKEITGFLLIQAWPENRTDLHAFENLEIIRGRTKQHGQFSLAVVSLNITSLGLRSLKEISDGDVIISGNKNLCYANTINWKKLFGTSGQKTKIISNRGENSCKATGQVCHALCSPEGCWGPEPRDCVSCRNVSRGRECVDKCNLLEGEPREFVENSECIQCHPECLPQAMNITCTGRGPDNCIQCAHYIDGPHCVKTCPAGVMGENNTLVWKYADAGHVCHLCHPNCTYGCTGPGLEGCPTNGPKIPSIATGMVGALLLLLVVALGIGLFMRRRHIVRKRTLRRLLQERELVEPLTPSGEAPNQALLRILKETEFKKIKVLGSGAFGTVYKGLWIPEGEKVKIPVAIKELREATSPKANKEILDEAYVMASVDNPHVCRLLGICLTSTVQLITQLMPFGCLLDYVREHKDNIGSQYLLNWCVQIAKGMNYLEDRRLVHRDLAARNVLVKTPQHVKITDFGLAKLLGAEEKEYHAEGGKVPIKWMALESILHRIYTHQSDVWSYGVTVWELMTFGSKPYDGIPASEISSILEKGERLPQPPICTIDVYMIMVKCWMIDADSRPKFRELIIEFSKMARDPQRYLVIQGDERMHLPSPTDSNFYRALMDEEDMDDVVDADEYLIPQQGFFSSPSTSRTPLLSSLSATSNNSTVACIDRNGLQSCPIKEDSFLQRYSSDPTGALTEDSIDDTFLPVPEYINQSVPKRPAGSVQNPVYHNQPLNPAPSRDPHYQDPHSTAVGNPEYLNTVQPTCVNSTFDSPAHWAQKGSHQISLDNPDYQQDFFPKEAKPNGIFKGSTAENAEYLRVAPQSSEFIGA

- Stability of suspension [1]: short term stability
- Vitamin K3 concentration in Cornea [2, 8]: <LLOQ
- Vitamin K3 concentration in Central Choroid [2, 8]: <LLOQ
- Vitamin K3 concentration in Plasma ([2]; Group 8: Formula II 4 mg/mL, HPMC, average n = 3, LLOQ = 0.291 μM): <LLOQ
- Vitamin K3 concentration in Cornea [2, 9]: <LLOQ
- Vitamin K3 concentration in Central Retina ([2]; Group 9: Formula II 4 mg/mL, Pluronic, LLOQ = 11.6 μM): <LLOQ
- Vitamin K3 concentration in Central Choroid [2, 9]: <LLOQ
- Vitamin K3 in central retina and cornea samples ([7]; Group 5): no quantitative results
- Vitamin K3 Cornea concentration ([7]; Group 5: Compound-I 4 mg/mL suspension with Vitamin K3 1 μM, QD for 4 days, 1 hr post dose on Day 5, LLOQ = 0.145 μM): <LLOQ
- Vitamin K3 Central Retina concentration ([7]; Group 5: Compound-I 4 mg/mL suspension with Vitamin K3 1 μM, QD for 4 days, 1 hr post dose on Day 5, LLOQ = 0.581 μM): <LLOQ
SMILES: CC1=CC(=O)c2ccccc2C1=O [menadione]
- Effect on corneal epithelial wound healing after pre-treatment with a compound of Formula I or II (10 μM) [3]: reversed the effects
- Basal EGFR phosphorylation and EGFR dephosphorylation ([4]; 0.3 or 3.0 μM, 4 hours, 50 ng/ml EGF 0-3 hours): did not change
- Kinetics of EGFR degradation ([4]; menadione): slowed the kinetics of EGFR degradation
- Effect on inhibition of in vitro wound healing by a compound of Formula I or II [5]: reversed
- Effect on Formula I or II compound-mediated EGFR inhibition [6]: overcome
- Effect on Formula I or II compound-mediated EGFR inhibition ([6]; listed as vitamin K3): most effectively attenuated
